# Experiments:
# [1] = system: sugar beet; experiment: Test B preemergence/postemergence greenhouse plant response rating 0 to 10; format: in vivo, Beta vulgaris; details: for Plant response rating, Sugar beet: 0 to 10 scale
# Outline: (§1)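 Both application timings were run together: seeds got compound preemergence, and established seedlings (two to eighteen cm) got it postemergence. Non-phytotoxic solvent carried the chemical. Ratings are visual, versus controls, at twelve to sixteen days.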
# [2] = system: wheat; experiment: Test C preemergence/postemergence greenhouse plant response rating 0 to 100; format: in vivo, Triticum aestivum; details: for Plant response rating, Wheat: 125 g/ha, 0 to 100 scale
# Description: (§2) The compounds evaluated in this test were formulated in a non-phytoxic solvent and applied to the soil surface before plant seedlings emerged (preemergence application), to water that covered the soil surface (flood application), and to plants that were in the one-to-four leaf stage (postemergence application). A sandy loam soil was used for the preemergence and postemergence tests, while a silt loam soil was used in the flood test. Water depth was approximately 2.5 cm for the flood test and was maintained at this level for the duration of the test. Plant species in the preemergence and postemergence tests consisted of barley (Hordeum vulgare), bedstraw (Galium aparine), blackgrass (Alopecurus myosuroides), chickweed (Stellaria media), corn (Zea mays), cotton (Gossypium hirsutum), crabgrass (Digitaria sanguinalis), downy brome (Bromus tectorum), giant foxtail (Setaria faberii), lambsquarters (Chenopodium album), morningglory (Ipomoea hederacea), pigweed ([…]), rape (Brassica napus), ryegrass (Lolium multiflorum), sorghum (Sorghum bicolor), soybean (Glycine max), speedwell (Veronica persica), sugar beet (Beta vulgaris), velvetleaf (Abutilon theophrasti), wheat (Triticum aestivum), wild buckwheat (Polygonum convolvulus), and wild oat (Avena fatua). All plant species were planted one day before application of the compound for the preemergence portion-of this test. Plantings of these species were adjusted to produce plants of appropriate size for the post-emergence portion of the test. […] All plant species were grown using normal greenhouse practices. Visual evaluations of injury expressed on treated plants, when compared to untreated controls, were recorded approximately fourteen to twenty one days after application of the test compound. […] A dash (-) response means no test result.
# [3] = system: velvetleaf; experiment: Test B preemergence/postemergence greenhouse plant response rating 0 to 10; format: in vivo, Abutilon theophrasti; details: for Plant response rating, Velvetleaf: 0 to 10 scale
# Outline: as §1
# [4] = system: soybean; experiment: as above; format: in vivo, Glycine max; details: for Plant response rating, Soybean: 0 to 10 scale
# Outline: as §1
# [5] = system: morningglory; experiment: Test C preemergence/postemergence greenhouse plant response rating 0 to 100; format: in vivo, Ipomoea hederacea; details: for Plant response rating, Morningglory: 125 g/ha, 0 to 100 scale
# Description: as §2
# [6] = system: crabgrass; experiment: as above; format: in vivo, Digitaria sanguinalis; details: for Plant response rating, Crabgrass: 125 g/ha, 0 to 100 scale
# Description: as §2
# [7] = system: corn; experiment: Test B preemergence/postemergence greenhouse plant response rating 0 to 10; format: in vivo, Zea mays; details: for Plant response rating, Corn: 0 to 10 scale
# Outline: as §1
# [8] = system: morningglory; experiment: as above; format: in vivo, Ipomoea hederacea; details: for Plant response rating, Morningglory: 0 to 10 scale
# Outline: as §1
# [9] = system: corn; experiment: Test C preemergence/postemergence greenhouse plant response rating 0 to 100; format: in vivo, Zea mays; details: for Plant response rating, Corn: 125 g/ha, 0 to 100 scale
# Description: as §2
# [10] = system: velvetleaf; experiment: as above; format: in vivo, Abutilon theophrasti; details: for Plant response rating, Velvetleaf: 125 g/ha, 0 to 100 scale
# Description: as §2
# [11] = system: lambsquarters; experiment: as above; format: in vivo, Chenopodium album; details: for Plant response rating Lambsquarters: 125 g/ha, 0 to 100 scale
# Description: as §2
# [12] = system: chickweed; experiment: Test B preemergence/postemergence greenhouse plant response rating 0 to 10; format: in vivo, Stellaria media; details: for Plant response rating, Chickweed: 0 to 10 scale
# Outline: as §1
smiles,measurement,setting,value
CCOCOc1cc(-c2nn3c(c2Cl)CCCC3)c(F)cc1Cl [Compound 59],"Plant response rating, Sugar beet","[1]; POSTEMERGENCE, Rate 50 g/ha",10
same,"Plant response rating, Sugar beet","[1]; PREEMERGENCE, Rate 50 g/ha",9
same,"Plant response rating (0 to 10 scale), Sugar beet","[1]; PREEMERGENCE, Rate 200 g/ha",10
same,"Plant response rating, Sugar beet","[1]; Rate 200 g/ha, POSTEMERGENCE",10
same,"Plant response rating, Wheat",[2]; POSTEMERGENCE,70
same,"Plant response rating (0 to 100), Wheat","[2]; POSTEMERGENCE, Rate 2 g/ha",10
same,"Plant response rating, Wheat",[2]; PREEMERGENCE,10
same,"Plant response rating (0 to 100), Wheat","[2]; PREEMERGENCE, Rate 2 g/ha",0
same,"Plant response rating (0 to 100), Wheat","[2]; Rate 8 g/ha, POSTEMERGENCE",40
same,"Plant response rating (0 to 100), Wheat","[2]; Rate 8 g/ha, PREEMERGENCE",0
same,"Plant response rating (0 to 100), Wheat","[2]; Rate 31 g/ha, POSTEMERGENCE",60
same,"Plant response rating (0 to 100), Wheat","[2]; Rate 31 g/ha, PREEMERGENCE",0
same,"Plant response rating, Velvetleaf","[3]; POSTEMERGENCE, Rate 50 g/ha",8
same,"Plant response rating, Velvetleaf","[3]; PREEMERGENCE, Rate 50 g/ha",10
same,"Plant response rating (0 to 10 scale), Velvetleaf","[3]; PREEMERGENCE, Rate 200 g/ha",10
same,"Plant response rating, Velvetleaf","[3]; Rate 200 g/ha, POSTEMERGENCE",10
same,"Plant response rating, Soybean","[4]; POSTEMERGENCE, Rate 50 g/ha",8
same,"Plant response rating, Soybean","[4]; PREEMERGENCE, Rate 50 g/ha",0
same,"Plant response rating (0 to 10 scale), Soybean","[4]; PREEMERGENCE, Rate 200 g/ha",4
same,"Plant response rating, Soybean","[4]; Rate 200 g/ha, POSTEMERGENCE",7
same,"Plant response rating, Morningglory",[5]; POSTEMERGENCE,85
same,"Plant response rating (0 to 100), Morningglory","[5]; POSTEMERGENCE, Rate 2 g/ha",70
same,"Plant response rating, Morningglory",[5]; PREEMERGENCE,10
same,"Plant response rating (0 to 100), Morningglory","[5]; PREEMERGENCE, Rate 2 g/ha",0
same,"Plant response rating (0 to 100), Morningglory","[5]; Rate 8 g/ha, POSTEMERGENCE",70
same,"Plant response rating (0 to 100), Morningglory","[5]; Rate 8 g/ha, PREEMERGENCE",0
same,"Plant response rating (0 to 100), Morningglory","[5]; Rate 31 g/ha, POSTEMERGENCE",85
same,"Plant response rating (0 to 100), Morningglory","[5]; Rate 31 g/ha, PREEMERGENCE",10
same,"Plant response rating, Crabgrass",[6]; POSTEMERGENCE,70
same,"Plant response rating (0 to 100), Crabgrass","[6]; POSTEMERGENCE, Rate 2 g/ha",10
same,"Plant response rating, Crabgrass",[6]; PREEMERGENCE,90
same,"Plant response rating (0 to 100), Crabgrass","[6]; PREEMERGENCE, Rate 2 g/ha",0
same,"Plant response rating (0 to 100), Crabgrass","[6]; Rate 8 g/ha, POSTEMERGENCE",30
same,"Plant response rating (0 to 100), Crabgrass","[6]; Rate 8 g/ha, PREEMERGENCE",0
same,"Plant response rating (0 to 100), Crabgrass","[6]; Rate 31 g/ha, POSTEMERGENCE",40
same,"Plant response rating (0 to 100), Crabgrass","[6]; Rate 31 g/ha, PREEMERGENCE",30
same,"Plant response rating, Corn","[7]; POSTEMERGENCE, Rate 50 g/ha",4
same,"Plant response rating, Corn","[7]; PREEMERGENCE, Rate 50 g/ha",1
same,"Plant response rating (0 to 10 scale), Corn","[7]; PREEMERGENCE, Rate 200 g/ha",2
same,"Plant response rating, Corn","[7]; Rate 200 g/ha, POSTEMERGENCE",5
same,"Plant response rating, Morningglory","[8]; POSTEMERGENCE, Rate 50 g/ha",8
same,"Plant response rating, Morningglory","[8]; PREEMERGENCE, Rate 50 g/ha",2
same,"Plant response rating (0 to 10 scale), Morningglory","[8]; PREEMERGENCE, Rate 200 g/ha",6
same,"Plant response rating, Morningglory","[8]; Rate 200 g/ha, POSTEMERGENCE",10
same,"Plant response rating, Corn",[9]; POSTEMERGENCE,65
same,"Plant response rating (0 to 100), Corn","[9]; POSTEMERGENCE, Rate 2 g/ha",30
same,"Plant response rating, Corn",[9]; PREEMERGENCE,0
same,"Plant response rating (0 to 100), Corn","[9]; PREEMERGENCE, Rate 2 g/ha",0
same,"Plant response rating (0 to 100), Corn","[9]; Rate 8 g/ha, POSTEMERGENCE",40
same,"Plant response rating (0 to 100), Corn","[9]; Rate 8 g/ha, PREEMERGENCE",0
same,"Plant response rating (0 to 100), Corn","[9]; Rate 31 g/ha, POSTEMERGENCE",50
same,"Plant response rating (0 to 100), Corn","[9]; Rate 31 g/ha, PREEMERGENCE",0
same,"Plant response rating, Velvetleaf",[10]; POSTEMERGENCE,100
same,"Plant response rating (0 to 100), Velvetleaf","[10]; POSTEMERGENCE, Rate 2 g/ha",50
same,"Plant response rating, Velvetleaf",[10]; PREEMERGENCE,100
same,"Plant response rating (0 to 100), Velvetleaf","[10]; PREEMERGENCE, Rate 2 g/ha",0
same,"Plant response rating (0 to 100), Velvetleaf","[10]; Rate 8 g/ha, POSTEMERGENCE",70
same,"Plant response rating (0 to 100), Velvetleaf","[10]; Rate 8 g/ha, PREEMERGENCE",40
same,"Plant response rating (0 to 100), Velvetleaf","[10]; Rate 31 g/ha, POSTEMERGENCE",90
same,"Plant response rating (0 to 100), Velvetleaf","[10]; Rate 31 g/ha, PREEMERGENCE",95
same,Plant response rating Lambsquarters,[11]; POSTEMERGENCE,95
same,"Plant response rating (0 to 100), Lambsquarters","[11]; POSTEMERGENCE, Rate 2 g/ha",30
same,Plant response rating Lambsquarters,[11]; PREEMERGENCE,100
same,"Plant response rating (0 to 100), Lambsquarters","[11]; PREEMERGENCE, Rate 2 g/ha",0
same,"Plant response rating (0 to 100), Lambsquarters","[11]; Rate 8 g/ha, POSTEMERGENCE",70
same,"Plant response rating (0 to 100), Lambsquarters","[11]; Rate 8 g/ha, PREEMERGENCE",95
same,"Plant response rating (0 to 100), Lambsquarters","[11]; Rate 31 g/ha, POSTEMERGENCE",85
same,"Plant response rating (0 to 100), Lambsquarters","[11]; Rate 31 g/ha, PREEMERGENCE",100
same,"Plant response rating, Chickweed","[12]; POSTEMERGENCE, Rate 50 g/ha",6
same,"Plant response rating, Chickweed","[12]; PREEMERGENCE, Rate 50 g/ha",4
same,"Plant response rating (0 to 10 scale), Chickweed","[12]; PREEMERGENCE, Rate 200 g/ha",9
same,"Plant response rating, Chickweed","[12]; Rate 200 g/ha, POSTEMERGENCE",8
